Assay [1] relates to ocular hypertensive eyes of ketamine-sedated cynomolgus monkeys. As to the kind of experiment: Aqueous humor dynamics (fluorophotometry, tonography) in ketamine-sedated cynomolgus monkeys. The format is in vivo. To be noted: Treatment Day, Hypertensive Eye OS; one drop of 30 μl 0.01% the day before; mean ± SD. The source says:
Methods used in this Example were described by Yablonski et al. Invest Ophthalmol V is Sci 1987; 28:2076-2082; Hayashi et al. Exp Eye Res 1989; 48:621-625; Mäepea et al. Exp Eye Res 1989; 49:645-663, and as below:
Twelve female cynomolgus monkeys between the ages of 5 and 8 years were included in the study. All had unilateral laser treatment to the trabecular meshwork of the left eye. Lasering had been done between 2 and 4 years before the study.
Measurements were made on baseline day and after AL-42205-01 (FR-190997) treatment to both eyes. When necessary, sedation was induced by ketamine hydrochloride (HCl), 1 to 5 mg/kg, administered intramuscularly 5 minutes before a measurement to achieve pharmacological restraint. Animals were seated in specially designed chairs for all tonometry and fluorophotometry measurements. Fifteen hours prior to each study day, IOP1 was measured with a pneumatonometer (Classic 30, Xomed, Jacksonville, Fla.) after topical application of proparacaine HCl, 0.13%. Fluorescein (10%) was applied to the cornea by topical drops. Measurements commenced at 8:30-9:00 a.m. the following day with tonometry (IOP2). The fluorescence of the cornea and anterior chamber were measured in duplicate with a scanning fluorophotometer (Fluorotron, OcuMetrics, Palo Alto, Calif.). Scans were taken at 45 minute intervals for a total of 4 sets.
After the fourth set of scans and another IOP measurement (IOP3), an intramuscular injection of acetazolamide (12-20 mg/kg) was administered to reduce IOP by reducing aqueous flow. The dose of acetazolamide for individual monkeys depended on its IOP efficacy in previous studies. Fluorophotometric scans and IOP measurements were repeated 0.75, 1.50 and 2.25 hours after acetazolamide injection. Fluorophotometric outflow facility (Cfl) was calculated as the ratio of the change in aqueous flow to the change in IOP. Uveoscleral outflow (Fus) was calculated by the equation Fus=Fa−Cfl (IOP3−Pev) where Pev is the episcleral venous pressure. A value of 15 mmHg was used. The final measurement was two-minute tonography. The tonography mode of the pneumatonometer was used. Calculations were made using PowerLab and Excel.
Treatment measurements were collected between 6 and 21 days after baseline measurements. The day before the measurement day, conscious IOP was measured (IOP1; 9:00 AM) and one drop of 30 μl of AL-42205-01 0.01% (in matrix vehicle) was applied to both eyes. The drug was used within a week of receipt. It was stored refrigerated before use. Conscious IOP was measured again (IOP2; 5 PM) just before fluorescein was applied as before. The day of fluorophotometry, all measurements were made under sedation as on baseline day.
Values were compared between eyes on each day and baseline values were compared with post-treatment values using Student's two-tailed paired t-test (Table 11). Values are reported as means± standard deviation (SD).

Assay [2] deals with Human trabecular meshwork (TM) cells. The assay is described as follows: PGE2 production (RIA) in human trabecular meshwork cells. To be noted: 1 h at 37° C., BK 100 nM or 1 μM, fluprostenol 1 μM, non-peptide agonists 1 μM or 10 μM, FIG. 6. Type of assay: cell-based. Here is the method:
The ability of BK agonists to stimulate prostaglandin E2 (PGE2) production was examined as follows. Human trabecular meshwork (TM) cells were seeded in culture plates and allowed to reach confluence. […] Fluprostenol was used as a positive control. After this time the assay was terminated by placing the assay plates on ice and by the addition of 100 μL of a cell-lysis reagent supplied with the PGE2 radioimmunoassay (RIA) kit (Amersham Pharmacia Biotech, Arlington Heights, Ill.). All reagents and standards supplied in the RIA kit were prepared and the RIA performed according to the manufacturer's instructions. Assay buffer, diluted prostaglandin E2 (PGE2) standard and supernatant from the cell-based experiment (diluted 1:100 v/v) were then pipetted into appropriate tubes as specified in the kit instructions. […]
After this incubation, all tubes were placed in an ice-bath and 1 ml cold precipitating reagent supplied in the kit was added to the tubes, the content mixed and incubated for 25 min at 4° C. […] The supernatants of all tubes were decanted as specified in the kit instructions and the RIA samples analyzed on a gamma-counter. The levels of PGE2 generated by the test agent were then quantified in comparison with the PGE2-standard curve. Dose-response data for the test agent were constructed and the potency and intrinsic activity determined as described above for other assays.

Assay [3] relates to rabbits (New Zealand White and Dutch-Belted). The assay is described as follows: IOP-lowering activity in rabbits. Type of assay: in vivo. The source says:
(§1) Some obvious drawbacks and reasons for the lack of consistent observations noted above are probably related to species differences in the effects of BK on IOP changes and on the fact that BK is a labile peptide that can easily and rapidly be inactivated by kininases and other proteases when it comes into contact with body fluids (Hall, Pharmacol. Ther., 56, 131-190, 1992). Additionally, topical ocular administration of peptides such as BK are confounded by the potential lack of or little bioavailability through the cornea to reach the anterior segment of the eye. […] This is probably related to the attainment of a relevant concentration in the aqueous humor and ciliary body when the compound was administered topical ocularly.
IOP is determined with an applanation pneumatonometer after light corneal anesthesia with 0.1% proparacaine. After baseline IOP measurements are taken, one eye of each of 7-10 (or both eyes of 5) rabbits per compound dose is topically dosed with compound. Either the contralateral eye is dosed with vehicle or a separate group of rabbits is used for vehicle control. Subsequent IOP measurements are taken at 0.5, 1, 2, 3, and 4 hours. In cases where the compound has poor ocular bioavailability, the compound may need to be administered intracamerally or intravitreally in order to observe the IOP-lowering efficacy.

The subject of a further assay is guinea pigs. The assay is described as follows: IOP-lowering activity in guinea pigs. The format is in vivo.
Description: as §1

Take `CNC(=O)c1ccc(/C=C/C(=O)NCC(=O)N(C)c2ccc(Cl)c(COc3cccc4c(OCc5ccccn5)cc(C)nc34)c2Cl)cc1` [FR-190997]: in assay [1], the “Cfl, fluorophotometric outflow facility” value amounted to 0.18 ± 0.16 μl/min/mmHg; the “Cton, tonographic outflow facility” value is 0.17 ± 0.11 μl/min/mmHg; the “Fa, aqueous flow” value is 1.48 ± 0.53 µL/min; the “Fufl, uveoscleral outflow calculated with Cfl” value was 1.23 ± 0.91 µL/min. Besides, in assay [1], the “Futon, uveoscleral outflow calculated with Cton” value was 1.45 ± 0.45 µL/min. Also, in assay [2], the “production of endogenous prostaglandins (PGE2)” value is “stimulated production of endogenous prostaglandins”. The “ability to lower IOP” value in assay [3] is “unable to lower IOP”. For the same molecule, the “ability to lower IOP” value in the assay on guinea pigs is “unable to lower IOP”.

The values above are taken from patent publication US8173668B1 (Alcon Research, Ltd., priority 2007, dated 2012).
